Experiment [1] has as its target T1, recombinant BACE1 protein (Homo sapiens, UniProt P56817).
T1 construct: recombinant BACE1 protein in a final concentration of 1 μg/ml
Kind of experiment: BACE1 biochemical FRET based assay - Method 2. The following applies: BACE1 0.04 μg/ml, 450 minutes, 20 μM substrate, pH 5.0; for IC50: read-out: Biochemical FRET based assay- Method 2 pIC50 (converted). From the text: (§1) BACE1 Biochemical FRET Based Assay
(§2) This assay is a Fluorescence Resonance Energy Transfer Assay (FRET) based assay. The substrate for this assay is an APP derived 13 amino acids peptide that contains the ‘Swedish’ Lys-Met/Asn-Leu mutation of the amyloid precursor protein (APP) beta-secretase cleavage site. This substrate also contains two fluorophores: (7-methoxycoumarin-4-yl) acetic acid (Mca) is a fluorescent donor with excitation wavelength at 320 nm and emission at 405 nm and 2,4-Dinitrophenyl (Dnp) is a proprietary quencher acceptor. […] Upon cleavage by BACE1, the fluorophore Mca is separated from the quenching group Dnp, restoring the full fluorescence yield of the donor. The increase in fluorescence is linearly related to the rate of proteolysis.
Briefly in a 384-well format recombinant BACE1 protein in a final concentration of 0.04 μg/ml is incubated for 450 minutes at room temperature with 20 μM substrate in incubation buffer (50 mM Citrate buffer pH 5.0, 0.05% PEG) in the presence of compound or DMSO. Next the amount of proteolysis is directly measured by fluorescence measurement (excitation at 320 nm and emission at 405 nm) at different incubation times (0, 30, 60, 90, 120 and 450 min). For every experiment a time curve (every 30 min between 0 min and 120 min) is used to determine the time where we find the lowest basal signal of the high control. The signal at this time (Tx) is used to subtract from the signal at 450 min. Results are expressed in RFU, as difference between T450 and Tx.
(§3) A best-fit curve is fitted by a minimum sum of squares method to the plot of % Controlmin versus compound concentration. From this an IC50 value (inhibitory concentration causing 50% inhibition of activity) can be obtained.

Experiment [2] concerns Abeta 1-42 produced and secreted by SKNBE2 cells expressing hAPP695. Kind of experiment: Cellular αLisa assay in SKNBE2 cells - Abeta 42. The experiment is classed as cell-based, human. The following applies: incubated for 18 hours; for IC50: Homo sapiens, read-out: Cellular αLisa assay in SKNBE2 cells Abeta 42 pIC50 (converted). The protocol: (§4) Cellular αLisa Assay in SKNBE2 Cells
(§5) In two αLisa assays the levels of Abeta total and Abeta 1-42 produced and secreted into the medium of human neuroblastoma SKNBE2 cells are quantified. The assay is based on the human neuroblastoma SKNBE2 expressing the wild type Amyloid Precursor Protein (hAPP695). The compounds are diluted and added to these cells, incubated for 18 hours and then measurements of Abeta 1-42 and Abeta total are taken. Abeta total and Abeta 1-42 are measured by sandwich αLisa. αLisa is a sandwich assay using biotinylated antibody AbN/25 attached to streptavidin coated beads and antibody Ab4G8 or cAb42/26 conjugated acceptor beads for the detection of Abeta total and Abeta 1-42 respectively. In the presence of Abeta total or Abeta 1-42, the beads come into close proximity. The excitation of the donor beads provokes the release of singlet oxygen molecules that trigger a cascade of energy transfer in the acceptor beads, resulting in light emission. Light emission is measured after 1 hour incubation (excitation at […] and emission at 615 nm).
as §3

Experiment [3] deals with Abeta total produced and secreted by SKNBE2 cells expressing hAPP695. Kind of experiment: Cellular αLisa assay in SKNBE2 cells - Abeta total. Format: cell-based. The following applies: Homo sapiens, incubated for 18 hours, read-out: Cellular αLisa assay in SKNBE2 cells Abeta total pIC50 (converted). The protocol: as §4, §5, §3
The target of experiment [4] is T2, recombinant BACE2 protein (Homo sapiens, UniProt Q9Y5Z0).
T2 construct: recombinant BACE2 protein in a final concentration of 0.4 μg/nil
T2 sequence (Q9Y5Z0 63-518): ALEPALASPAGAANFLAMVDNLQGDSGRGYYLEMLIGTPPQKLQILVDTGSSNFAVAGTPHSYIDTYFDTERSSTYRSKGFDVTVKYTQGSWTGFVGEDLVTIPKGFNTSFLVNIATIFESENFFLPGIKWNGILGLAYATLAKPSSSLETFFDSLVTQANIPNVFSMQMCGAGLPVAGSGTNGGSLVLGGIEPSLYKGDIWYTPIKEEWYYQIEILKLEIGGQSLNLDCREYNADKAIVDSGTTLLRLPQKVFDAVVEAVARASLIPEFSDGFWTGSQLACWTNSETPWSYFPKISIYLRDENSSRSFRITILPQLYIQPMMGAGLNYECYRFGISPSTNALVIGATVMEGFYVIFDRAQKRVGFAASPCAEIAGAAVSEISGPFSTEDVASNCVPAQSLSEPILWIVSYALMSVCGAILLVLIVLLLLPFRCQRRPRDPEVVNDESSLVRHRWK
Kind of experiment: BACE2 biochemical FRET based assay. The settings on record: BACE2 0.4 μg/nil, 450 minutes, 10 μM substrate, pH 5.0; for IC50: read-out: Biochemical FRET based assay pIC50 (BACE2) (converted).
Description: BACE2 Biochemical FRET Based Assay
as §2, with “assay” for “assay is an APP derived 13 amino acids peptide that”, “the beta-secretase,” for “BACE1,”
Briefly in a 384-well format recombinant BACE2 protein in a final concentration of […] is incubated for 450 minutes at room temperature with 10 μM substrate in incubation buffer (50 mM Citrate buffer pH 5.0, 0.05% PEG, no DMSO) in the absence or presence of compound. Next the amount of proteolysis is directly measured by fluorescence measurement at T=0 and T=450 (excitation at 320 nm and emission at 405 nm). Results are expressed in RFU (Relative Fluorescence Units), as difference between T450 and T0.
as §3

In experiment [5] the target is T1, recombinant BACE1 protein. Kind of experiment: BACE1 biochemical FRET based assay - Method 1. The settings on record: BACE1 1 μg/ml, 120 minutes, 10 μm substrate, pH 5.0; read-out: Biochemical FRET based assay - Method 1 pIC50 (converted).
Description: as §1, §2
Briefly in a 384-well format recombinant BACE1 protein in a final concentration of 1 μg/ml is incubated for 120 minutes at room temperature with 10 μm substrate in incubation buffer (40 mM Citrate buffer pH 5.0, 0.04% PEG, 4% DMSO) in the absence or presence of compound. Next the amount of proteolysis is directly measured by fluorescence measurement at T=0 and T=120 (excitation at 320 nm and emission at 405 nm). Results are expressed in RFU (Relative Fluorescence Units), as difference between T120 and T0.
as §3

Bounds are passed on as bounds.

12 compounds from patent US10106524B2, “2,3,4,5-tetrahydropyridin-6-amine and 3,4-dihydro-2H-pyrrol-5-amine compound inhibitors of beta-secretase” (Janssen Pharmaceutica NV, priority 2015, dated 2018) can be followed below.

T1 sequence (P56817 46-501): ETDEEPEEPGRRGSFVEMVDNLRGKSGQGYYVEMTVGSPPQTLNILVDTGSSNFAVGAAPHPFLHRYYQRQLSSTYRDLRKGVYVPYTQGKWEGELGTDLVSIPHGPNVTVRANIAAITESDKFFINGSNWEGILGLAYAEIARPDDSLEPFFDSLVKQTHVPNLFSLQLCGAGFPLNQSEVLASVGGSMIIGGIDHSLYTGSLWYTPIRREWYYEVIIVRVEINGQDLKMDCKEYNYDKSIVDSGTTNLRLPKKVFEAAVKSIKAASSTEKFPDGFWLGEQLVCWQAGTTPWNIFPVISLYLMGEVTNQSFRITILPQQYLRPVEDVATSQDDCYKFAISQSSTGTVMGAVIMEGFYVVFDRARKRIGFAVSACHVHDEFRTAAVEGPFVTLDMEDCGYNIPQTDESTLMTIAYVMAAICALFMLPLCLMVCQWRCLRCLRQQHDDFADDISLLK

`COc1cnc(C(=O)Nc2ccc(F)c(C3(C)N=C(N)CC3C(F)(F)F)c2)cn1` (racemic) [Compound 17, (±)-N-[3-[(2S*,3R*)-5-amino-2-methyl-3-(trifluoromethyl)-3,4-dihydropyrrol-2-yl]-4-fluoro-phenyl]-5-methoxy-pyrazine-2-carboxamide]: the IC50 was 0.871 µM in experiment [1], 0.17 µM in experiment [2], 0.178 µM in experiment [3] and above 10 µM in experiment [4].
For `CC1(c2cc(NC(=O)c3ccc(C#N)cn3)ccc2F)N=C(N)CC1C(F)(F)F` (racemic) [Compound 18, (+)-N-[3-[(2S*,3R*)-5-amino-2-methyl-3-(trifluoromethyl)-3,4-dihydropyrrol-2-yl]-4-fluoro-phenyl]-5-cyano-pyridine-2-carboxamide], in that order: 0.38 µM, 0.0676 µM, 0.0646 µM and 2.19 µM.
As for `C[C@@]1(c2cccc(-c3cncnc3)c2)C[C@@H](C(F)(F)F)CC(N)=N1` [Compound 1, (4R,6S)-6-methyl-6-(3-pyrimidin-5-ylphenyl)-4-(trifluoromethyl)-3,4,5,6-tetrahydropyridin-2-amine], the IC50 in experiment [5] is 1.48 µM; in experiment [1] it was 1.02 µM; in experiment [2] it was 0.295 µM; in experiment [3], 0.263 µM.
Take `C[C@@]1(c2cccc(-c3cncnc3)c2)C[C@H](C(F)(F)F)CC(N)=N1` [Compound 2, (4S,6S)-6-methyl-6-(3-pyrimidin-5-ylphenyl)-4-(trifluoromethyl)-3,4,5,6-tetrahydropyridin-2-amine]: the IC50 in experiment [5] was 18.2 µM; in experiment [1] it was above 10 µM; in experiment [2], 4.27 µM; in experiment [3], 3.98 µM; in experiment [4], above 10 µM.
`C[C@@]1(c2cccc(NC(=O)c3ncc(Cl)cc3F)c2)C[C@@H](C(F)(F)F)CC(N)=N1` [Compound 5, N-[3-[(2S,4R)-6-amino-2-methyl-4-(trifluoromethyl)-4,5-dihydro-3H-pyridin-2-yl]phenyl]-5-chloro-3-fluoro-pyridine-2-carboxamide]: the IC50 in experiment [5] was 0.0263 µM; in experiment [1], 0.0182 µM; in experiment [2], 0.024 µM; in experiment [3] it was 0.0209 µM; in experiment [4] it was 0.0209 µM.
As to `C[C@@]1(c2cccc(NC(=O)c3ncc(Cl)cc3F)c2)C[C@H](C(F)(F)F)CC(N)=N1` [Compound 6, N-[3-[(2S,4S)-6-amino-2-methyl-4-(trifluoromethyl)-4,5-dihydro-3H-pyridin-2-yl]phenyl]-5-chloro-3-fluoro-pyridine-2-carboxamide], the IC50 is 4.9 µM in experiment [5]; 1.62 µM in experiment [1]; 2 µM in experiment [2]; 1.86 µM in experiment [3]; 1.15 µM in experiment [4].
For `C[C@@]1(c2cccc(NC(=O)c3ccc(C#N)cn3)c2)C[C@@H](C(F)(F)F)CC(N)=N1` [Compound 7, N-[3-[(2S,4R)-6-amino-2-methyl-4-(trifluoromethyl)-4,5-dihydro-3H-pyridin-2-yl]phenyl]-5-cyano-pyridine-2-carboxamide], in that order: 0.0324 µM, 0.0204 µM, 0.024 µM, 0.024 µM and 0.132 µM.
For the compound `CC1(c2cc(-c3cncnc3)ccc2F)N=C(N)CC1C(F)(F)F` (centres unmarked) [Compound 14], the IC50 in experiment [1] is above 10 µM; in experiment [2] it was 8.91 µM; in experiment [3], 8.32 µM; in experiment [4] it was above 10 µM.
For `C[C@]1(c2cc(NC(=O)c3ccc(Cl)cn3)ccc2F)N=C(N)C[C@H]1C(F)(F)F` [Compound 19, N-[3-[(2S,3R)-5-amino-2-methyl-3-(trifluoromethyl)-3,4-dihydropyrrol-2-yl]-4-fluoro-phenyl]-5-chloro-pyridine-2-carboxamide], the IC50 in experiment [1] is 0.302 µM; in experiment [2] it was 0.0617 µM; in experiment [3] it was 0.0813 µM; in experiment [4] it was 0.692 µM.
With `C[C@@]1(c2cc(NC(=O)c3ccc(Cl)cn3)ccc2F)N=C(N)C[C@@H]1C(F)(F)F` [Compound 20, N-[3-[(2R,3S)-5-amino-2-methyl-3-(trifluoromethyl)-3,4-dihydropyrrol-2-yl]-4-fluoro-phenyl]-5-chloro-pyridine-2-carboxamide], the IC50 was above 10 µM in experiment [1], 8.91 µM in experiment [2], 8.32 µM in experiment [3] and above 10 µM in experiment [4].
On to `C[C@@]1(c2cc(NC(=O)c3ccc(Br)cn3)ccc2F)N=C(N)C[C@@H]1C(F)(F)F` [Compound 33, N-[3-[(2R,3S)-5-amino-2-methyl-3-(trifluoromethyl)-3,4-dihydropyrrol-2-yl]-4-fluoro-phenyl]-5-bromo-pyridine-2-carboxamide], for which the IC50 in experiment [1] was 0.229 µM; in experiment [2] it was 0.0363 µM; in experiment [4] it was 0.513 µM.
Regarding “(±)-N-[3-[(2S*,3R*)-5-amino-2-methyl-3-(trifluoromethyl)-3,4-dihydropyrrol-2-yl]-4-fluoro-phenyl]-5-(2,2,2-trifluoroethoxy)pyrazine-2-carboxamide [Compound 24]”, the “Biochemical FRET based assay- Method 2 pIC50” value in experiment [1] is given as 6.10. Moreover, in experiment [2], the “Cellular αLisa assay in SKNBE2 cells Abeta 42 pIC50” value turned out to be 6.38. The “Biochemical FRET based assay pIC50 (BACE2)” value in experiment [4] was below 5.
